From US20250122171A1, “Substituted Amine Compounds, Compositions and Methods of Use” (Deep Apple Therapeutics, Inc., priority 2023, published 2025)

Tests used:
Format in all cases: cell-based
LAD-2 cells [1] = assay: LAD2 Degranulation Assay (Protocol 1), β-hexosaminidase release; conditions: Homo sapiens, 1 μM Cortistatin-14, 30 minute preincubation, top concentration 3 μM
Description: (§1) LAD-2 cells were maintained at 37° C. with 5% CO2 and grown in complete StemPro-34 media supplemented with 1% L-Glutamate, 1% penicillin/streptomycin, and 250 ng/mL human SCF.
On the day of experiment, cells were collected by centrifugation and seeded in 384-well assay plates, at 4,000 cells per well in 10 μl freshly made assay buffer (10 mM HEPES, 130 mM NaCl, 5 mM KCl, 1.8 mM CaCl2), 1.0 mM MgCl2, 5.6 mM glucose, 0.1% BSA, pH=7.40). For dose-response assays, compounds solubilized in 100% DMSO at 30 mM were serially diluted (1:3) first in 100% DMSO, and 2 intermediate dilutions with assay buffer were used to establish a final top concentration of 3 μM (in assay plate). Final DMSO concentration was kept constant at 0.1% across plates for all assays. Cortistatin-14 at 30 mM stock concentration was solubilized in HBSS+0.1% BSA, stored at −20° C. in 5 μl aliquots and discarded after one freeze-thaw cycle. Final concentration of agonist used in both dose-response and single point assays was 1 μM, prepared in assay buffer.
(§2) Antagonist equilibrium was established with 30 minute preincubation, followed by no wash, direct addition, and stimulation of agonist for 30 minutes at 37° C. For detection of β-hexosaminidase activity, assay plates were centrifuged and 5 μl of cell-free supernatant from each assay well was transferred to a black-walled black-bottomed 384-well plate. Substrate solution (1 mM 4-Methylumbelliferyl N-acetyl-β-D-glucosaminide in citrate buffer, pH=4.5, 15 μl) was added to each well and plates were incubated for 1 hour at 37° C. The plate was read on an EnVision XCite plate reader for umbelliferone fluorescence intensity (λex=355 nm, λem=460 nm). Background-subtracted data was analyzed using either GraphPad Prism or a custom Python script to calculate IC50 using either Log[Antagonist] vs. response (4 parameter) nonlinear regression (dose-response assays).

human MRGPRX2 = target: T1, human MRGPRX2 (Homo sapiens, UniProt Q96LB1); assay: MRGPRX2 Activity Assay (IP-1 HTRF, antagonist mode); conditions: FlpIn TRex-MRGPRX2-HEK293 cells; versus 1 μM Cortistatin-14 agonist; 30 minutes preincubation
T1 construct: expressed in transfected cells; host or cells: FlpIn TRex HEK293 (TRex-MRGPRX2-HEK), doxycycline-induced
T1 sequence (Q96LB1 1-330): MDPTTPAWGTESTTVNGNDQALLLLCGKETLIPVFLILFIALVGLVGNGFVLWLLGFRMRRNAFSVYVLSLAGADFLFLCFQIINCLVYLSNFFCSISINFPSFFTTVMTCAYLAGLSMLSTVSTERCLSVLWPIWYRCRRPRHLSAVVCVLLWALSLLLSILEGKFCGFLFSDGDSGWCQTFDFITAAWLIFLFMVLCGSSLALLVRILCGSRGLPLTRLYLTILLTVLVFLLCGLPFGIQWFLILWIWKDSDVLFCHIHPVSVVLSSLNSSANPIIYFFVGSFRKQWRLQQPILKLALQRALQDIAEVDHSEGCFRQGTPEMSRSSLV
Procedure, shortened: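 Doxycycline-induced (100 ng/mL, 18-24 h) TRex HEK293 cells stably expressing human MRGPRX2, in HBSS/20 mM HEPES/0.1% BSA/10 mM LiCl. Compounds (top final 30 uM, 1% DMSO) preincubated 30 min, then agonist stimulation 1 h at 37° C without wash. IP-1 accumulation read by HTRF; IC50 from 4-parameter fit.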

LAD-2 cells [2] = assay: LAD2 Degranulation Assay (Protocol 2), β-hexosaminidase release; conditions: Homo sapiens, 0.5 μM Cortistatin-14, 2 h preincubation, cells without SCF 18-24 hours, top concentration 3 μM
Description: as §1
18-24 hours prior to experiment, LAD-2 cells were collected and transferred to growth media without SCF. On the day of experiment, cells were collected by centrifugation and seeded in 384-well assay plates, at 4,000 cells per well in 17 μl freshly made assay buffer (10 mM HEPES, 137 mM NaCl, 2.7 mM KCl, 1.8 mM CaCl2), 1.0 mM MgCl2, 5.6 mM glucose, 0.4 mM NaH2PO4, 0.04% BSA, pH=7.40). For dose-response assays, compounds solubilized in 100% DMSO at 30 mM were serially diluted (1:3) first in 100% DMSO, and 2 intermediate dilutions with assay buffer were used to establish a final top concentration of 3 μM (in assay plate). For single point assays, dilution of DMSO stocks to 250 nM (in assay plate) was performed in the same manner as described for dose-response assays. Final DMSO concentration was kept constant at 0.1% across plates for all assays. Cortistatin-14 at 30 mM stock concentration was solubilized in HBSS+0.1% BSA, stored at −20° C. in 5 μl aliquots and discarded after one freeze-thaw cycle. Final concentration of agonist used in both dose-response and single point assays was 0.5 μM, prepared in assay buffer.
as §2, with “with 2 h” for “with 30 minute”, “[…])” for “15 μl)”, “(dose-response assays) or % control β-hexosaminidase activity (single point” for “(dose-response”

| Compound | IC50 (LAD-2 cells [1]) [nM] | IC50 (human MRGPRX2) [nM] | IC50 (LAD-2 cells [2]) [nM] |
| --- | --- | --- | --- |
| C[C@@H](C(=O)Nc1cn(Cc2ccc(F)cc2F)c(C(F)(F)F)n1)N1CCC(F)(F)[C@@H](c2cc[n+]([O-])cc2)C1 (single isomer, unassigned) [Compound 7] | > 3000 | 45 | – |
| Cc1nc(NC(=O)[C@H](C)N2CCC(F)(F)[C@@H](c3cc[n+]([O-])cc3)C2)cn1Cc1cc(F)cc(F)c1 (single isomer, unassigned) [Compound 19] | 1.6 | 2.1 | – |
| Cc1nc(NC(=O)[C@H](C)N2CCC(F)(F)CC2)cn1Cc1cc(F)cc(F)c1 (single isomer, unassigned) [Compound 21] | 0.7 | 3.3 | – |
| C[C@H](C(=O)Nc1coc(Cc2cc(F)cc(F)c2)n1)N1CCC(F)(F)[C@@H](c2cc[n+]([O-])cc2)C1 (single isomer, unassigned) [Compound 28] | 19 | 2.1 | – |
| C[C@@H](C(=O)Nc1noc(Cc2cc(F)cc(F)c2)n1)N1CCC(F)(F)[C@@H](c2cc[n+]([O-])cc2)C1 (single isomer, unassigned) [Compound 56] | 976 | 76 | – |
| C[C@@H](C(=O)Nc1cn(Cc2cc(F)cc(F)c2)c(Cl)n1)N1CCC(F)(F)[C@@H](c2cc[n+]([O-])cc2)C1 (single isomer, unassigned) [Compound 80] | > 3000 | 755 | – |
| C[C@@H](C(=O)Nc1cn(Cc2cc(F)c(F)c(F)c2)cn1)N1CCC(F)(F)[C@@H](c2cc[n+]([O-])cc2)C1 [Compound 34, 4-((S)-4,4-difluoro-1-((S)-1-oxo-1-((1-(3,4,5-trifluorobenzyl)-1H-imidazol-4-yl)amino)propan-2-yl)piperidin-3-yl)pyridine 1-oxide] | 25 | 11 | – |
| C[C@@H](C(=O)Nc1cn(Cc2cc(F)ccc2Cl)cn1)N1CCC(F)(F)[C@@H](c2cc[n+]([O-])cc2)C1 [Compound 35, 4-((S)-1-((S)-1-((1-(2-chloro-5-fluorobenzyl)-1H-imidazol-4-yl)amino)-1-oxopropan-2-yl)-4,4-difluoropiperidin-3-yl)pyridine 1-oxide] | 57 | 7.9 | – |

Continued by falling IC50 (LAD-2 cells [1]), values first:

| IC50 (LAD-2 cells [1]) [nM] | IC50 (human MRGPRX2) [nM] | IC50 (LAD-2 cells [2]) [nM] | Compound |
| --- | --- | --- | --- |
| 1020 | 783 | – | C[C@@H](C(=O)Nc1cn(Cc2cc(F)cc(C#N)c2)cn1)N1CCC(F)(F)[C@@H](c2cc[n+]([O-])cc2)C1 [Compound 53, 4-((S)-1-((S)-1-((1-(3-cyano-5-fluorobenzyl)-1H-imidazol-4-yl)amino)-1-oxopropan-2-yl)-4,4-difluoropiperidin-3-yl)pyridine 1-oxide] |
| 212 | 220 | – | O=C(Nc1cn(Cc2cc(F)cc(F)c2)cn1)[C@@H]1C(F)(F)C12CCC2 [Compound 29, (R)—N-(1-(3,5-difluorobenzyl)-1H-imidazol-4-yl)-2,2-difluorospiro[2.3]hexane-1-carboxamide] |
| 100 | 28 | – | C[C@H](C(=O)Nc1nc2ccccc2s1)N1CCC(F)(F)[C@@H](c2cc[n+]([O-])cc2)C1 (single isomer, unassigned) [Compound 85] |
| 51 | 18 | – | C[C@H](C(=O)Nc1cn(Cc2cc(F)cc(F)c2)c(C(F)(F)F)n1)N1CCC(F)(F)[C@H](c2ccc(=O)[nH]c2)C1 (single isomer, unassigned) [Compound 77] |
| 40 | 13 | – | C[C@H](C(=O)Nc1cn(Cc2cc(F)cc(F)c2)c(C(F)(F)F)n1)N1CCC(F)(F)[C@@H](c2cc[n+]([O-])cc2)C1 (single isomer, unassigned) [Compound 26] |
| 30 | 23 | – | C[C@H](C(=O)Nc1cn(Cc2cc(F)cc(F)c2)cn1)N1CCC(F)(F)[C@@H](c2ccc(=O)n(C)c2)C1 (single isomer, unassigned) [Compound 68] |
| 28 | 17 | – | Cc1nc(NC(=O)[C@H](C)N2CCC(F)(F)[C@@H](c3cc[n+]([O-])cc3)C2)cn1Cc1ccc(F)cc1F (single isomer, unassigned) [Compound 9] |
| 22 | 4 | – | C[C@H](C(=O)Nc1cn(Cc2cc(F)cc(F)c2)cn1)N1CCC(F)(F)[C@@H](c2ccc(=O)[nH]c2)C1 (single isomer, unassigned) [Compound 55] |
| 20 | 12 | – | C[C@H](C(=O)Nc1cn(Cc2cc(F)cc(F)c2)cn1)N1CCC(F)(F)[C@@H](c2c[nH]c(=O)c(CO)c2)C1 (single isomer, unassigned) [Compound 72] |
| 13 | 8 | 12 | C[C@H](C(=O)Nc1cn(Cc2cc(F)cc(F)c2)c(C(F)F)n1)N1CCC(F)(F)[C@@H](c2cc[n+]([O-])cc2)C1 (single isomer, unassigned) [Compound 83] |
| 3.3 | 4.1 | – | C[C@@H](C(=O)Nc1cn(Cc2cc(F)cc(F)c2F)cn1)N1CCC(F)(F)[C@@H](c2cc[n+]([O-])cc2)C1 [Compound 39, 4-((S)-4,4-difluoro-1-((S)-1-oxo-1-((1-(2,3,5-trifluorobenzyl)-1H-imidazol-4-yl)amino)propan-2-yl)piperidin-3-yl)pyridine 1-oxide] |
